Reference: ChEMBL document CHEMBL5291721, “A preclinical secondary pharmacology resource illuminates target-adverse drug reaction associations of marketed drugs” (Nat Commun, 2023)
Where “and” joins values, the source holds several entries; their conditions need not be identical. Equal entries are not always repeated.

Legend:
[1] = target: T1, B2 bradykinin receptor (Homo sapiens, UniProt P30411)
T1 sequence (P30411 whole entry): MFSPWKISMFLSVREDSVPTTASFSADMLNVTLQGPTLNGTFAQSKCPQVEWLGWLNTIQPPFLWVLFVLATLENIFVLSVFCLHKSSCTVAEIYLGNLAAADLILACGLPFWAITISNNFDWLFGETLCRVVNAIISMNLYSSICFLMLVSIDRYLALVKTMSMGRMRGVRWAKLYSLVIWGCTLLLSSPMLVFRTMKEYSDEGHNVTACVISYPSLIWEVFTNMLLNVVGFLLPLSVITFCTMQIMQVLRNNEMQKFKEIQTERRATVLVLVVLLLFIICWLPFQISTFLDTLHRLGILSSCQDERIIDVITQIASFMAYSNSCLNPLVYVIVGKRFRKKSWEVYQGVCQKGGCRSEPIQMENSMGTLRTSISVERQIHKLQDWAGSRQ

[2] = target: Voltage-dependent L-type calcium channel subunit alpha-1C (Rattus norvegicus, UniProt P22002); assay type: functional
[3] = target: T2, Alpha-2A adrenergic receptor (Homo sapiens, UniProt P08913); assay type: functional, cell-based
T2 sequence (P08913 whole entry): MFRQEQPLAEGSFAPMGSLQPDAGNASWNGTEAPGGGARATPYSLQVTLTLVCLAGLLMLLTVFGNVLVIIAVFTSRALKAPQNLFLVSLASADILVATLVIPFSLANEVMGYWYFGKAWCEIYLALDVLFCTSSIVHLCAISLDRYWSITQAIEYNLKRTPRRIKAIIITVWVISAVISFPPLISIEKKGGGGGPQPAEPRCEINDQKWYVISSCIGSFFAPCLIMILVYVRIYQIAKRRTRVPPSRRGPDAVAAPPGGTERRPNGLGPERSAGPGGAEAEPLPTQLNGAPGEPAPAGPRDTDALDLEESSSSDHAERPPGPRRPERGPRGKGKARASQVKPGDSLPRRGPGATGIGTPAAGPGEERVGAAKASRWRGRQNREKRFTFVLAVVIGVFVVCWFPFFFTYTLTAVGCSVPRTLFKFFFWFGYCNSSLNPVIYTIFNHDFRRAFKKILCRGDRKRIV

[4] = target: Adenosine receptor A2a (Homo sapiens, UniProt P29274)
[5] = target: T3, Endothelin-1 receptor (Homo sapiens, UniProt P25101)
T3 sequence (P25101 whole entry): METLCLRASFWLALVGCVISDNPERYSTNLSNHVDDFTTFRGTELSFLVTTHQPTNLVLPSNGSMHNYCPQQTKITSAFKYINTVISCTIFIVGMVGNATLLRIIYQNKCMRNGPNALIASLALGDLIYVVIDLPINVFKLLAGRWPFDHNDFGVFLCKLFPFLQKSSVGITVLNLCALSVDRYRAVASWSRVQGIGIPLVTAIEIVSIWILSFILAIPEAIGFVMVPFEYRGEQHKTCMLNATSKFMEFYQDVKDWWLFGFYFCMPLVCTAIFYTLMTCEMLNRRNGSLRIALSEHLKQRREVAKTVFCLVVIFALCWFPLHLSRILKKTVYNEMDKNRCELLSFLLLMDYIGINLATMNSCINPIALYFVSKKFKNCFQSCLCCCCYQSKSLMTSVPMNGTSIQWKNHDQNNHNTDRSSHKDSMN

[6] = target: Histamine H1 receptor (Homo sapiens, UniProt P35367)
[7] = target: 5-hydroxytryptamine receptor 2B (Homo sapiens, UniProt P41595); assay type: functional, cell-based
[8] = target: Cannabinoid receptor 1 (Homo sapiens, UniProt P21554); assay type: functional, cell-based
[9] = target: Mu-type opioid receptor (Homo sapiens, UniProt P35372)
[10] = target: T4, Progesterone receptor (Homo sapiens, UniProt P06401); assay type: functional
T4 sequence (P06401 whole entry): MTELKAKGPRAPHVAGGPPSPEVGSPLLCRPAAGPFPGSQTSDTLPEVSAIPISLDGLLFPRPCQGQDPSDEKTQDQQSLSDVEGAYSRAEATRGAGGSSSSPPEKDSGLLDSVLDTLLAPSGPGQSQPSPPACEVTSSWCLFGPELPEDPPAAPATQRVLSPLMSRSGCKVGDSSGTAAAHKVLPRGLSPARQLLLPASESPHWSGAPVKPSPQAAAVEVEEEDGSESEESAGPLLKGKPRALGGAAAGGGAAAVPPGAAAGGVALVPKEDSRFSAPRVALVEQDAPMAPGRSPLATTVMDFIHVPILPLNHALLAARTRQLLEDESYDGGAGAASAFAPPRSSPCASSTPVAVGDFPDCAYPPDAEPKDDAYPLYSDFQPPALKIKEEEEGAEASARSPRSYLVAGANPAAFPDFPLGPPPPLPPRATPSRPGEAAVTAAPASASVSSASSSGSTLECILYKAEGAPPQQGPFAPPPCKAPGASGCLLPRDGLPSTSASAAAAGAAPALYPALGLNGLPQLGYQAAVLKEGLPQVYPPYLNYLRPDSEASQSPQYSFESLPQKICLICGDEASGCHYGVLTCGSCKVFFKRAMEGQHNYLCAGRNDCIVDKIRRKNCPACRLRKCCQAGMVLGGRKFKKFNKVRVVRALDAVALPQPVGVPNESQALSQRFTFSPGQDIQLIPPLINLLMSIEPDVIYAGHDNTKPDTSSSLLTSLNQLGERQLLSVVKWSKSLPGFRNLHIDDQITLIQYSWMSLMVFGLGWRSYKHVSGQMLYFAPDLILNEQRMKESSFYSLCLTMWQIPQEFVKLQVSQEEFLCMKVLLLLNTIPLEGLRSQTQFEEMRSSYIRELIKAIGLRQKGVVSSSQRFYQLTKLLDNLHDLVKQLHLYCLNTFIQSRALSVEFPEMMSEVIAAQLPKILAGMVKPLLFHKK
Also: assay procedure not described here.

Chain of Adenosine receptor A2a (P29274 whole entry): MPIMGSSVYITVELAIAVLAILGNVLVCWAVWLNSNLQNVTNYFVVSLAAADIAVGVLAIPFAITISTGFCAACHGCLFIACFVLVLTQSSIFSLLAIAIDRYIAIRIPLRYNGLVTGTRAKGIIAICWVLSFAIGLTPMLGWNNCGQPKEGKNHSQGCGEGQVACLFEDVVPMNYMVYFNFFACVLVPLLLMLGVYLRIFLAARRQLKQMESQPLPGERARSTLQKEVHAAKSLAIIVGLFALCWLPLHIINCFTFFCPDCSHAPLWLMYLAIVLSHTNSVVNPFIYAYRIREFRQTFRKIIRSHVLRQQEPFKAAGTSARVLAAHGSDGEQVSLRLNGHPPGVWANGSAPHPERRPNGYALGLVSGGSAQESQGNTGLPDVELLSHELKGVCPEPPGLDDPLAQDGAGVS
Chain of 5-hydroxytryptamine receptor 2B (P41595 whole entry): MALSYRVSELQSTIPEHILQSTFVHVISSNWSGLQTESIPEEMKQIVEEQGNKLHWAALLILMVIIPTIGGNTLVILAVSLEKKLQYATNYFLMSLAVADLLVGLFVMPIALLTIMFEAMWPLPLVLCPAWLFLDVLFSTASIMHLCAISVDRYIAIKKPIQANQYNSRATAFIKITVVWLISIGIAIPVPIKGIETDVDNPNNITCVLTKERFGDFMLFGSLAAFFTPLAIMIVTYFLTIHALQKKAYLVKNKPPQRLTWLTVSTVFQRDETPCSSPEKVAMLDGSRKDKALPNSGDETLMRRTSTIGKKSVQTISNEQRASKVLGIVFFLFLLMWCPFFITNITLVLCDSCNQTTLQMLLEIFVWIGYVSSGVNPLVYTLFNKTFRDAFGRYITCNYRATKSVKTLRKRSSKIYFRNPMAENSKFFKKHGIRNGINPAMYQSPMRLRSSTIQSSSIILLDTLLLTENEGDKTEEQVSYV
Chain of Mu-type opioid receptor (P35372 whole entry): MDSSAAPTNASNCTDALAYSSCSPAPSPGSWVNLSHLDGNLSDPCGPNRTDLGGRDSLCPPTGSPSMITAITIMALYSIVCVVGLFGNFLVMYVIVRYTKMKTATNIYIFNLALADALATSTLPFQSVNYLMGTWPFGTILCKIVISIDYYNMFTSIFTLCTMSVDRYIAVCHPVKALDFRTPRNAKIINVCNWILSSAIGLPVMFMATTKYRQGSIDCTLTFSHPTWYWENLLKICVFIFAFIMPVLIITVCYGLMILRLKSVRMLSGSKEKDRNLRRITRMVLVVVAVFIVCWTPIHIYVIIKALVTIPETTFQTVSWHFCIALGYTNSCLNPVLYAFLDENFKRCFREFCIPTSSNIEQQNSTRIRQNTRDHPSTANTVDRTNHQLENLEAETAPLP
Chain of Voltage-dependent L-type calcium channel subunit alpha-1C (P22002 whole entry): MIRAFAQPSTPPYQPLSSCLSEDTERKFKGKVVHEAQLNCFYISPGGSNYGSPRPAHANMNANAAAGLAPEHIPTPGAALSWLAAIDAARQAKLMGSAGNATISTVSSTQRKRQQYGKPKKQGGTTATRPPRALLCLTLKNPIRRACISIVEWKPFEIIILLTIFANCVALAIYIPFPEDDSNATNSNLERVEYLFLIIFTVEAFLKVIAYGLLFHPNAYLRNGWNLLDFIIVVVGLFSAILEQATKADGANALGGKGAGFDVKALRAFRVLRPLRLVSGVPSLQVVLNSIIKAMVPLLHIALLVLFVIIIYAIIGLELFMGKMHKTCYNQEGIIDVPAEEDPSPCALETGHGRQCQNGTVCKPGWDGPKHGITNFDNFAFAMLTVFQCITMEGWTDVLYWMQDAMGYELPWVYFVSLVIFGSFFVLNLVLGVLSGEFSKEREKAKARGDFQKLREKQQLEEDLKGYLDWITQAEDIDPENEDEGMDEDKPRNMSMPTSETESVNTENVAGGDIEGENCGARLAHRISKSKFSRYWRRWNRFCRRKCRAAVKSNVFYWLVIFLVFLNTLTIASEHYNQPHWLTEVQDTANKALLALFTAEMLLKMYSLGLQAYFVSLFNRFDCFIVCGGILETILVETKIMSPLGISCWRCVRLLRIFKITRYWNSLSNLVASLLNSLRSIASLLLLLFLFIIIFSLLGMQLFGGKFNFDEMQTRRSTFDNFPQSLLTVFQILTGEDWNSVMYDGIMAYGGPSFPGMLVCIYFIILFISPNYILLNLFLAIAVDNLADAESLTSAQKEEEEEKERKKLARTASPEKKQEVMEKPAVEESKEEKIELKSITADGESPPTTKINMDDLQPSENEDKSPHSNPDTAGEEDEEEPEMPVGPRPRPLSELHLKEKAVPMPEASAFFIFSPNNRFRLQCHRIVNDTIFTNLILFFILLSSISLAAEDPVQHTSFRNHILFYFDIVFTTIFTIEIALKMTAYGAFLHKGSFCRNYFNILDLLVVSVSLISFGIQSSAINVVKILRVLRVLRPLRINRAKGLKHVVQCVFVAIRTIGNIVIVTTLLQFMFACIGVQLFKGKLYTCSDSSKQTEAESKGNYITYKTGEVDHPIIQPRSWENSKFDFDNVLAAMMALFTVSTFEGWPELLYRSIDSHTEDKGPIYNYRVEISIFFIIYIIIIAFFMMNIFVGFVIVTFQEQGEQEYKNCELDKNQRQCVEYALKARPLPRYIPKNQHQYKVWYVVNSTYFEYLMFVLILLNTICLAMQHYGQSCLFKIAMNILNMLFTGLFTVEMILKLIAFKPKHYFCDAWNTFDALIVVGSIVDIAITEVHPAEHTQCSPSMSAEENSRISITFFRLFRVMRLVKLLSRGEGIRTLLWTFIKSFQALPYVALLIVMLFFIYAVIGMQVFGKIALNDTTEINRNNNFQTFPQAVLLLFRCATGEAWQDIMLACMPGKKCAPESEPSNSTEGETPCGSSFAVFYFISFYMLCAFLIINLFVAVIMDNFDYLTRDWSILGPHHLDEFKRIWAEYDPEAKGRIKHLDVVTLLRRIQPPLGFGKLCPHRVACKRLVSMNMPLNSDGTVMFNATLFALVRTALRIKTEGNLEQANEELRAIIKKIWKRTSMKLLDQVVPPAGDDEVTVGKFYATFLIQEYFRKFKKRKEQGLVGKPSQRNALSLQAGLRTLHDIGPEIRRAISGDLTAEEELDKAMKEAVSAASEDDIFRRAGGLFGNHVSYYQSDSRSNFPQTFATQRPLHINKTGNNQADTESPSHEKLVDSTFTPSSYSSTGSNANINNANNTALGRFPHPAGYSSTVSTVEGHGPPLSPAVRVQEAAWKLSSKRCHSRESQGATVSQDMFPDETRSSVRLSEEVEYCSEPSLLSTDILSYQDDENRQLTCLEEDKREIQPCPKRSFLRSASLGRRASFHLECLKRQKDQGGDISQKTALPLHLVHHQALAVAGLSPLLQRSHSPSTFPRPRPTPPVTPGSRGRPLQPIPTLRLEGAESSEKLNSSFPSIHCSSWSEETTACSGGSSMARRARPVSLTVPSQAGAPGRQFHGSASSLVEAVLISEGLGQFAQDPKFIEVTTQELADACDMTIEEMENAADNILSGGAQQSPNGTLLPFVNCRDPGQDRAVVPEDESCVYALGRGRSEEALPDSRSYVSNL
Chain of Cannabinoid receptor 1 (P21554 whole entry): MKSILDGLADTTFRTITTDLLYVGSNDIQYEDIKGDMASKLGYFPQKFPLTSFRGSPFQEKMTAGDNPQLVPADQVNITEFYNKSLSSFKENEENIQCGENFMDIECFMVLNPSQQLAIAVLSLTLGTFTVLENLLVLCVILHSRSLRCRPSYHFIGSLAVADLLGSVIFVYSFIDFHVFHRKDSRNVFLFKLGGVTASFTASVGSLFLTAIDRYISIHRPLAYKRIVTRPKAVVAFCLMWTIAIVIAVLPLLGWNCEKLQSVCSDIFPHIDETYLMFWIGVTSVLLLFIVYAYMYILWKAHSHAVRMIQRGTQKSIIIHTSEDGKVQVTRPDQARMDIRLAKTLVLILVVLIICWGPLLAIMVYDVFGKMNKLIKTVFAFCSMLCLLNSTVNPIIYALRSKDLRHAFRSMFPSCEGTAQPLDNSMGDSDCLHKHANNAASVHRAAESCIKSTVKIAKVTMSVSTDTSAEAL
Chain of Histamine H1 receptor (P35367 whole entry): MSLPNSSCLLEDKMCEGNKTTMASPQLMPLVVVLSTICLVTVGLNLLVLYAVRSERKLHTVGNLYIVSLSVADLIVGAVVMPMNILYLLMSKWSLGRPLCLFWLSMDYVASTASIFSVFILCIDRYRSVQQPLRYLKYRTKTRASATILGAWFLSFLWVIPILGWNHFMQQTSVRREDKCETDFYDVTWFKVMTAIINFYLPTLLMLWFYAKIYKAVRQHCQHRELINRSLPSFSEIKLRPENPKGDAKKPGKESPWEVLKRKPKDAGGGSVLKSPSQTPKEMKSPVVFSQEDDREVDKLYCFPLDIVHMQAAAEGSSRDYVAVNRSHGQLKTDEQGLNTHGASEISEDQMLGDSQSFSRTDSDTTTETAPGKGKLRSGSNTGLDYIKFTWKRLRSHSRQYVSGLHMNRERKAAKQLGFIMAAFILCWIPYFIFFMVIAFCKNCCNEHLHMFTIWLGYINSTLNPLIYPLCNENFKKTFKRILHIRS

Row | SMILES | AC50 [1] [µM] | AC50 [2] [µM] | AC50 [3] [µM] | AC50 [4] [µM] | AC50 [5] [µM] | AC50 [6] [µM] | AC50 [7] | AC50 [8] [µM] | AC50 [9] [µM] | AC50 [10] [µM]
1 | Oc1cc(O)c(Cl)cn1 | > 30 | > 30 | > 30 | > 30 | > 30 | > 30 | > 30 µM | > 30 | – | –
2 | CCC1(CCC(C)C)C(=O)NC(=O)NC1=O [AMOBARBITAL] | > 10 | > 10 | > 10 | > 10 | – | – | > 10 µM | – | > 30 | > 10
3 | COc1ccc(C2C(=O)c3ccccc3C2=O)cc1 [ANISINDIONE] | > 10 | > 10 | > 10 | > 10 | – | – | > 10 µM | – | > 30 | > 30
4 | O=C(O)CCNC(=O)c1ccc(/N=N/c2ccc(O)c(C(=O)O)c2)cc1 [BALSALAZIDE] | > 30 | > 30 | > 30 | 33.1 | – | – | > 30 µM | – | – | > 30
5 | Clc1ccc(CCC(Cn2ccnc2)Sc2c(Cl)cccc2Cl)cc1 (configuration not stated) [BUTOCONAZOLE] | > 30 | 17 | > 30 | > 30 | > 30 | > 30 | > 30 µM | – | – | > 30
6 | C[C@@H]1C[C@H]2[C@@H]3CCC4=CC(=O)C=C[C@]4(C)[C@@]3(F)[C@@H](O)C[C@]2(C)[C@@]1(O)C(=O)CO [DEXAMETHASONE] | > 30 | > 10 | > 10 | > 30 | – | – | > 10 µM | – | > 30 | 0.2
7 | Oc1ccc(CCNCCCCCCNCCc2ccccc2)cc1O [DOPEXAMINE] | > 30 | > 30 | > 30 | > 30 | > 30 | 15 | > 30 µM | > 30 | – | > 30
8 | CCN1CC(CCN2CCOCC2)C(c2ccccc2)(c2ccccc2)C1=O (configuration not stated) [DOXAPRAM] | > 30 | > 30 | > 30 | > 30 | > 30 | – | > 30 µM | > 30 | – | > 30
9 | CC(C)NC[C@H](O)COc1ccc(CC(N)=O)cc1 [ESATENOLOL] | > 30 | – | > 10 | > 30 | > 30 | – | – | – | – | –
10 | CCc1cc2c(s1)-n1c(C)nnc1CN=C2c1ccccc1Cl [ETIZOLAM] | > 30 | > 30 | > 30 | > 30 | > 30 | > 30 | > 30 µM | > 30 | – | > 30
11 | CCOC(=O)c1ncn2c1CN(C)C(=O)c1cc(F)ccc1-2 [FLUMAZENIL] | > 30 | > 30 | > 30 | > 30 | – | – | > 30 µM | – | > 30 | > 30
12 | CC/C=C\C/C=C\C/C=C\C/C=C\C/C=C\CCCC(=O)OCC [ICOSAPENT ETHYL] | > 30 | > 30 | > 30 | > 30 | > 30 | > 30 | > 30 µM | > 30 | – | > 30
13 | NNC(=O)c1ccncc1 [ISONIAZID] | > 30 | > 30 | > 30 | > 30 | > 30 | – | > 30 µM | > 30 | > 30 | > 30
14 | COc1ccc2cc(CCC(C)=O)ccc2c1 [NABUMETONE] | > 10 | > 10 | > 10 | > 10 | – | – | > 10 µM | – | > 30 | > 10
15 | Fc1ccc([C@@H]2CCNC[C@H]2COc2ccc3c(c2)OCO3)cc1 [PAROXETINE] | > 30 | 2.5 | – | > 30 | > 30 | – | 9.9 µM and > 30 µM | – | – | –
16 | NC(=O)NC(=O)Cc1ccccc1 [PHENACEMIDE] | > 10 | > 10 | > 10 | > 10 | – | – | > 10 µM | – | > 30 | > 10
17 | CCCN(CCC)S(=O)(=O)c1ccc(C(=O)O)cc1 [PROBENECID] | > 10 | > 10 | > 10 | > 10 | – | – | > 10 µM | – | > 30 | > 10
18 | O=c1c(O)c(-c2ccc(O)c(O)c2)oc2cc(O)cc(O)c12 [QUERCETIN] | > 30 | > 10 | > 10 | > 30 | > 30 | > 10 | > 30 µM | – | – | –
19 | C=CC[N+]1([C@H]2C[C@H]3[C@@H]4CC[C@H]5C[C@H](O)[C@@H](N6CCOCC6)C[C@]5(C)[C@H]4CC[C@]3(C)[C@H]2OC(C)=O)CCCC1 [ROCURONIUM] | > 30 | > 30 | > 30 | > 30 | – | > 30 | > 30 µM | – | – | > 30
20 | Cc1cc(C)nc(NS(=O)(=O)c2ccc(N)cc2)n1 [SULFAMETHAZINE] | > 10 | > 10 | > 10 | > 10 | – | – | > 10 µM | – | > 30 | > 10
21 | COc1cc(C(=O)NC2CCCNC2)cc(OC)c1OC (configuration not stated) [TROXIPIDE] | > 30 | > 30 | > 30 | > 30 | > 30 | – | > 30 µM | > 30 | – | > 30
22 | CC(C)(C)NCC(O)c1ccccc1Cl (configuration not stated) [TULOBUTEROL] | > 30 | > 30 | > 30 | > 30 | > 30 | – | > 30 µM | > 30 | – | > 30
23 | CCCCCCCC(=O)CC[C@@H]1[C@@H](C/C=C\CCCC(=O)OC(C)C)[C@@H](O)C[C@H]1O [UNOPROSTONE ISOPROPYL] | – | – | – | – | – | > 30 | > 30 µM | – | – | > 30
24 | CC(c1cc2ccccc2s1)N(O)C(N)=O (configuration not stated) [ZILEUTON] | > 10 | > 10 | > 10 | > 10 | – | – | > 10 µM | > 30 | > 30 | > 30
